Publication PMC6280375 (The Journal of Venomous Animals and Toxins Including …, 2018)

test system: BjussuLAAO-II; settings: read-out: Km (mM) / Mean ± SD; 0.1 M HEPES pH 7, 45 °C, 2 mM OPD, 1 U/mL HRP

Which Km does the source give for N[C@@H](Cc1cnc[nH]1)C(=O)O [His] here?
Its Km is 14.1 ± 1.9 mM.

With NC(=O)CC[C@H](N)C(=O)O [Gln] as the compound, how does the Km read?
The Km was 3.2 ± 0.3 mM.

How did the Km turn out when CSCC[C@H](N)C(=O)O [Met] was run?
Its Km is 0.6 ± 0.1 mM.

For CC(C)C[C@H](N)C(=O)O [Leu], which Km is on record?
The Km was 0.3 mM.

Which Km does the source give for N[C@@H](Cc1ccc(O)cc1)C(=O)O [Tyr] here?
Its Km is 1.1 ± 0.1 mM.

CC[C@H](C)[C@H](N)C(=O)O [Ile] was tested. Which Km did it give?
The Km was 2 ± 0.1 mM.

How did the Km turn out when N[C@@H](Cc1ccccc1)C(=O)O [Phe] was run?
Its Km is 0.1 mM.
